Experimental findings from patent publication US10040781B2, “Tank-binding kinase inhibitor compounds” (Gilead Sciences, Inc., priority 2014, dated 2018) are described below.

The target of one assay is IKKε (Homo sapiens (Human), UniProt Q14164). The experiment in a line: IKKε TR-FRET enzymatic assay. The class given is biochemical. As to conditions: read-out: IKKe IC50.
A further assay deals with hJAK2 (Homo sapiens (Human), UniProt O60674). Briefly: hJAK2 LANCE TR-FRET enzymatic assay. The class given is biochemical. As to conditions: read-out: JAK2 IC50.
In another assay the target is TBK1 (Homo sapiens (Human), UniProt Q9UHD2). Briefly: TBK1 TR-FRET enzymatic assay.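 Note: phosphorylation of a biotinylated Ser/Thr peptide by purified full-length recombinant TBK1, read by TR-FRET after 240 min at 25 °C, IC50 is the geometric mean of at least four runs.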
Chain of TBK1 (Q9UHD2 whole entry): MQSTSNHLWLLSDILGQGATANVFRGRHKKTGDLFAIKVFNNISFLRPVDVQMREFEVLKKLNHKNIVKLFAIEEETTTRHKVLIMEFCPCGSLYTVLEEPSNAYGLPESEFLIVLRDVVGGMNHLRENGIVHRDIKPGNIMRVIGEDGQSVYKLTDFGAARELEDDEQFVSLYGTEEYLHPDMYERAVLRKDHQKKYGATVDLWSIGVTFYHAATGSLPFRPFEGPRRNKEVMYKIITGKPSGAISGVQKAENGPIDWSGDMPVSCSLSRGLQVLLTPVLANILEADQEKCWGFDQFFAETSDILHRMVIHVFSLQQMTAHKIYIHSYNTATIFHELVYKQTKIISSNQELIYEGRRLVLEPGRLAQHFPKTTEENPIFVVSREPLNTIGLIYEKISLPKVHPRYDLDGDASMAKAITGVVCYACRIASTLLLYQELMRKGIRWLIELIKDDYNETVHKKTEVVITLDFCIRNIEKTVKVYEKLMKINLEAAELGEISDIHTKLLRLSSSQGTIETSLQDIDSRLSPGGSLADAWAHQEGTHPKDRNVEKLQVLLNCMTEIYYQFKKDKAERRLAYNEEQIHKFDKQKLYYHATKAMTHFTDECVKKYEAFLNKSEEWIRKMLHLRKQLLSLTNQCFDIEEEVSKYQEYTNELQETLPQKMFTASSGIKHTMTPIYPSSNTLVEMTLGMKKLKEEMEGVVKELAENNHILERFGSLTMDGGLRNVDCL

Chain of hJAK2 (O60674 whole entry): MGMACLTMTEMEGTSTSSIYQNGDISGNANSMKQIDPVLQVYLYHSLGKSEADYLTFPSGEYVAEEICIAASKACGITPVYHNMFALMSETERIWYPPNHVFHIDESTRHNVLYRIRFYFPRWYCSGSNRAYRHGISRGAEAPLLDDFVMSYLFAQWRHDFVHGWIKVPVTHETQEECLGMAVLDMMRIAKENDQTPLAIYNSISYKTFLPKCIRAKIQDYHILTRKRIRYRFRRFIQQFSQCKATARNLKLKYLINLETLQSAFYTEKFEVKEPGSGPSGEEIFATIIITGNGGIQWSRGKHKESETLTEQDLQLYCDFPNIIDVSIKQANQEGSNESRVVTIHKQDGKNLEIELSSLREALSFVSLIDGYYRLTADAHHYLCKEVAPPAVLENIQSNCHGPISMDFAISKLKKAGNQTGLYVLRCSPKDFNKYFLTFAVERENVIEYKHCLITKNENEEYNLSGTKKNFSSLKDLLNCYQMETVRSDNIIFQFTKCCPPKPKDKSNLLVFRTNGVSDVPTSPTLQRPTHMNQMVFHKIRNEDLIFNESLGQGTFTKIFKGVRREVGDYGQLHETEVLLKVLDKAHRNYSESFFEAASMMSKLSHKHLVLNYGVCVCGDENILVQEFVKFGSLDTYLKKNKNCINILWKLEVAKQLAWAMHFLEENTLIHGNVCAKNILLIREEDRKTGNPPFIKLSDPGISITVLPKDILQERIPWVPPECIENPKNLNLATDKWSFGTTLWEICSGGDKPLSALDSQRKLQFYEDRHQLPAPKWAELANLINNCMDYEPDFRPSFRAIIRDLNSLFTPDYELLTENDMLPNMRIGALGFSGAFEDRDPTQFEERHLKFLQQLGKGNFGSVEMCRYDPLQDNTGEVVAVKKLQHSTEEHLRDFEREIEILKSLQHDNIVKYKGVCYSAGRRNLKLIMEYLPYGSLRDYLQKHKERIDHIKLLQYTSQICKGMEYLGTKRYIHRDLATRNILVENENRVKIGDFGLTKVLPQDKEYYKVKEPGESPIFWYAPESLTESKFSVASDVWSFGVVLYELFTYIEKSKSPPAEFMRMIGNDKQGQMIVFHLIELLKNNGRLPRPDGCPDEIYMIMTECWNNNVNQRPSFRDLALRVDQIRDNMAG
Chain of IKKε (Q14164 whole entry): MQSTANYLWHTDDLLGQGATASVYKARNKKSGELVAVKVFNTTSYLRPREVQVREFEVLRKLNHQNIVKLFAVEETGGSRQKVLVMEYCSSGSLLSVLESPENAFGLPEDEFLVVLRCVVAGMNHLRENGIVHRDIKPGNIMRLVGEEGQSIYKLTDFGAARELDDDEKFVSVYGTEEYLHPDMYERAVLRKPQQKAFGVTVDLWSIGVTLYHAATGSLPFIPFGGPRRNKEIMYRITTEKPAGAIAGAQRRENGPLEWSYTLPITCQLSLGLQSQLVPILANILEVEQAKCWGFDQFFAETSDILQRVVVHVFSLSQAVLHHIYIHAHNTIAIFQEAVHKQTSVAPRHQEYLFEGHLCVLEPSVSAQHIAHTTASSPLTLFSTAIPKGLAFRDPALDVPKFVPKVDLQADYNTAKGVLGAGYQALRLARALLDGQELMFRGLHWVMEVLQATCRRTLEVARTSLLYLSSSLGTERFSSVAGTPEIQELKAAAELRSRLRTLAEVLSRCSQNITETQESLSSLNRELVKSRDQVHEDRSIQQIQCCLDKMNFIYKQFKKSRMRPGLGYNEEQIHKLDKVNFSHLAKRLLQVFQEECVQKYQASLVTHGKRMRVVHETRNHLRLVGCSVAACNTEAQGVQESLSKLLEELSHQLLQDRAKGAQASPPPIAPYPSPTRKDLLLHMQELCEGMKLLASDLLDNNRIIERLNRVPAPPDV

For the compound `N#Cc1cc(-c2ncnc(Nc3cnn(CC(F)F)c3)n2)ccc1O[C@H]1CCN(C(=O)CO)C[C@H]1F` [Example 361, 5-(4-((1-(2,2-difluoroethyl)-1H-pyrazol-4-yl)amino)-1,3,5-triazin-2-yl)-2-(((3R,4S)-3-fluoro-1-(2-hydroxyacetyl)piperidin-4-yl)oxy)benzonitrile], the IC50 is 1 nM on IKKε, 317 nM on hJAK2 and 2 nM against TBK1.

For the compound `C[C@H](O)C(=O)N1CC[C@H](Oc2ccc(-c3ncnc(Nc4ccc(N5CCCOCC5)cc4)n3)cc2C#N)[C@H](F)C1` [Example 363, 5-(4-((4-(1,4-oxazepan-4-yl)phenyl)amino)-1,3,5-triazin-2-yl)-2-(((3R,4S)-3-fluoro-1-((S)-2-hydroxypropanoyl)piperidin-4-yl)oxy)benzonitrile], the figures for the concentration for half-maximal inhibition (IC50) on IKKε, on hJAK2 and at TBK1 were 1 nM, 665 nM and 3 nM, respectively.

Consider `C[C@H](O)C(=O)N1CC[C@H](Oc2ccc(-c3ncnc(Nc4ccc(N5CC6(COC6)C5)cc4)n3)cc2C#N)[C@H](F)C1` [Example 364, 5-(4-((4-(2-oxa-6-azaspiro[3.3]heptan-6-yl)phenyl)amino)-1,3,5-triazin-2-yl)-2-(((3R,4S)-3-fluoro-1-((S)-2-hydroxypropanoyl)piperidin-4-yl)oxy)benzonitrile], for which the figures for the IC50 at IKKε, at hJAK2 and against TBK1 were 4 nM, 634 nM and 5 nM, respectively.

`C[C@H](O)C(=O)N1CC[C@H](Oc2ccc(-c3ncnc(Nc4ccc(N5CCC6(CC5)COC6)cc4)n3)cc2C#N)[C@H](F)C1` [Example 365, 5-(4-((4-(2-oxa-7-azaspiro[3.5]nonan-7-yl)phenyl)amino)-1,3,5-triazin-2-yl)-2-(((3R,4S)-3-fluoro-1-((S)-2-hydroxypropanoyl)piperidin-4-yl)oxy)benzonitrile]: the IC50 on IKKε came to 2 nM; at hJAK2, 474 nM; against TBK1, 4 nM.

Regarding `C[C@H](O)C(=O)N1CC[C@H](Oc2ccc(-c3ncnc(Nc4ccc(N5CCN(C6COC6)CC5)c(F)c4)n3)cc2C#N)[C@H](F)C1` [Example 367, 2-(((3R,4S)-3-fluoro-1-((S)-2-hydroxypropanoyl)piperidin-4-yl)oxy)-5-(4-((3-fluoro-4-(4-(oxetan-3-yl)piperazin-1-yl)phenyl)amino)-1,3,5-triazin-2-yl)benzonitrile], the half-maximal inhibitory concentration (IC50) was 2 nM at IKKε, not below 1000 nM at hJAK2 and 3 nM on TBK1.

As to `N#Cc1cc(-c2ncnc(Nc3ccc(N4CCN(C5COC5)CC4)c(C(F)(F)F)c3)n2)ccc1O[C@H]1CCN(C(=O)CO)C[C@H]1F` [Example 368, 2-(((3R,4S)-3-fluoro-1-(2-hydroxyacetyl)piperidin-4-yl)oxy)-5-(4-((4-(4-(oxetan-3-yl)piperazin-1-yl)-3-(trifluoromethyl)phenyl)amino)-1,3,5-triazin-2-yl)benzonitrile], the IC50 on IKKε came to 2 nM; at hJAK2 it was 225 nM; against TBK1 it was 3 nM.

`C[C@H](O)C(=O)N1CC[C@H](Oc2ccc(-c3ncnc(Nc4ccc(N5CCN(C6COC6)CC5)c(C(F)(F)F)c4)n3)cc2C#N)[C@H](F)C1` [Example 370, 2-(((3R,4S)-3-fluoro-1-((S)-2-hydroxypropanoyl)piperidin-4-yl)oxy)-5-(4-((4-(4-(oxetan-3-yl)piperazin-1-yl)-3-(trifluoromethyl)phenyl)amino)-1,3,5-triazin-2-yl)benzonitrile]: the IC50 turned out to be 8 nM on IKKε, 875 nM on hJAK2 and 5 nM on TBK1.

As for `C[C@H](O)C(=O)N1CC[C@H](Oc2ccc(-c3ncnc(Nc4ccc(N5CCN(C6COC6)CC5)c(C(F)F)c4)n3)cc2C#N)[C@H](F)C1` [Example 371, 5-(4-((3-(difluoromethyl)-4-(4-(oxetan-3-yl)piperazin-1-yl)phenyl)amino)-1,3,5-triazin-2-yl)-2-(((3R,4S)-3-fluoro-1-((S)-2-hydroxypropanoyl)piperidin-4-yl)oxy)benzonitrile], the figures for the IC50 on IKKε, on hJAK2 and on TBK1 were 1 nM, 989 nM and 2 nM, respectively.

With `N#Cc1cc(-c2ncnc(Nc3ccc(N4CCN(C5COC5)CC4)c(F)c3)n2)ccc1O[C@H]1CCN(C(=O)[C@@H]2CCC(=O)N2)C[C@H]1F` [Example 372, 2-(((3R,4S)-3-fluoro-1-((S)-5-oxopyrrolidine-2-carbonyl)piperidin-4-yl)oxy)-5-(4-((3-fluoro-4-(4-(oxetan-3-yl)piperazin-1-yl)phenyl)amino)-1,3,5-triazin-2-yl)benzonitrile], the IC50 is 5 nM on IKKε, 305 nM at hJAK2 and 4 nM on TBK1.

Regarding `N#Cc1cc(-c2ncnc(Nc3ccc(N4CCN(C5COC5)CC4)c(F)c3)n2)ccc1O[C@H]1CCN(C(=O)c2cnn[nH]2)C[C@H]1F` [Example 373, 2-(((3R,4S)-3-fluoro-1-(1H-1,2,3-triazole-5-carbonyl)piperidin-4-yl)oxy)-5-(4-((3-fluoro-4-(4-(oxetan-3-yl)piperazin-1-yl)phenyl)amino)-1,3,5-triazin-2-yl)benzonitrile], the IC50 at IKKε is 1 nM; at hJAK2, 146 nM; at TBK1, 2 nM.

Consider `N#Cc1cc(-c2ncnc(Nc3ccc(N4CCN(C5COC5)CC4)cc3F)n2)ccc1O[C@H]1CCN(C(=O)[C@@H]2CCC(=O)N2)C[C@H]1F` [Example 374, 2-(((3R,4S)-3-fluoro-1-((S)-5-oxopyrrolidine-2-carbonyl)piperidin-4-yl)oxy)-5-(4-((2-fluoro-4-(4-(oxetan-3-yl)piperazin-1-yl)phenyl)amino)-1,3,5-triazin-2-yl)benzonitrile], for which the IC50 was not below 1000 nM on IKKε, not below 1000 nM on hJAK2 and 1000 nM against TBK1.

On to `C[C@H](O)C(=O)N1CC[C@H](Oc2ccc(-c3ncnc(Nc4ccc(N5CCN(C6COC6)CC5)cc4F)n3)cc2C#N)[C@H](F)C1` [Example 375, 2-(((3R,4S)-3-fluoro-1-((S)-2-hydroxypropanoyl)piperidin-4-yl)oxy)-5-(4-((2-fluoro-4-(4-(oxetan-3-yl)piperazin-1-yl)phenyl)amino)-1,3,5-triazin-2-yl)benzonitrile], for which the values for the IC50 on IKKε, at hJAK2 and against TBK1 were not below 1000 nM, not below 1000 nM and 1000 nM, respectively.

`N#Cc1cc(-c2ncnc(Nc3ccc(N4CCN(C5COC5)CC4)cc3)n2)ccc1O[C@H]1CCN(C(=O)c2cn(CCO)nn2)C[C@H]1F` [Example 376]: the IC50 on IKKε was determined as 3 nM; at hJAK2, 127 nM; at TBK1, 5 nM.

`C[C@H](O)C(=O)N1CC[C@H](Oc2ccc(-c3ncnc(Nc4ccc(N5CCN(C6COC6)CC5)nc4)n3)cc2C#N)[C@H](F)C1` [Example 379, 2-(((3R,4S)-3-fluoro-1-((S)-2-hydroxypropanoyl)piperidin-4-yl)oxy)-5-(4-((6-(4-(oxetan-3-yl)piperazin-1-yl)pyridin-3-yl)amino)-1,3,5-triazin-2-yl)benzonitrile]: the IC50 on IKKε was 3 nM; at hJAK2, not below 1000 nM; at TBK1, 5 nM.

On to `CCOC(=O)c1cccc(Nc2ncnc(-c3ccc(O[C@H]4CCN(C(=O)[C@H](C)O)C[C@H]4F)c(C#N)c3)n2)c1` [Example 380, Ethyl 3-((4-(3-cyano-4-(((3R,4S)-3-fluoro-1-((S)-2-hydroxypropanoyl)piperidin-4-yl)oxy)phenyl)-1,3,5-triazin-2-yl)amino)benzoate], for which the IC50 on IKKε is 8 nM; on hJAK2, 891 nM; against TBK1 it was 6 nM.

On to `C[C@H](O)C(=O)N1CC[C@H](Oc2ccc(-c3ncnc(Nc4ccc(C(C)(C)O)nc4)n3)cc2C#N)[C@H](F)C1` [Example 382, 2-(((3R,4S)-3-fluoro-1-((S)-2-hydroxypropanoyl)piperidin-4-yl)oxy)-5-(4-((6-(2-hydroxypropan-2-yl)pyridin-3-yl)amino)-1,3,5-triazin-2-yl)benzonitrile], for which the values for the IC50 at IKKε, at hJAK2 and at TBK1 were 3 nM, not below 1000 nM and 3 nM, respectively.

On to `C[C@H](O)C(=O)N1CC[C@H](Oc2ccc(-c3ncnc(Nc4ccc(N5CCOC[C@H]5CO)cc4)n3)cc2C#N)[C@H](F)C1` [Example 383, 2-(((3R,4S)-3-fluoro-1-((S)-2-hydroxypropanoyl)piperidin-4-yl)oxy)-5-(4-((4-((R)-3-(hydroxymethyl)morpholino)phenyl)amino)-1,3,5-triazin-2-yl)benzonitrile], for which the IC50 on IKKε is 1 nM; on hJAK2 it was 568 nM; against TBK1 it was 2 nM.

For the compound `N#Cc1cc(-c2ncnc(Nc3ccc(N4CCOC[C@H]4CO)cc3)n2)ccc1O[C@H]1CCN(C(=O)CO)C[C@H]1F` [Example 384, 2-(((3R,4S)-3-fluoro-1-(2-hydroxyacetyl)piperidin-4-yl)oxy)-5-(4-((4-((R)-3-(hydroxymethyl)morpholino)phenyl)amino)-1,3,5-triazin-2-yl)benzonitrile], the IC50 at IKKε was 1 nM; at hJAK2, 189 nM; against TBK1, 2 nM.

Turning to `C[C@H](O)C(=O)N1CC[C@H](Oc2ccc(-c3ncnc(Nc4ccc5c(c4)NC(=O)C5(C)C)n3)cc2C#N)[C@H](F)C1` [Example 385, 5-(4-((3,3-dimethyl-2-oxoindolin-6-yl)amino)-1,3,5-triazin-2-yl)-2-(((3R,4S)-3-fluoro-1-((8)-2-hydroxypropanoyl)piperidin-4-yl)oxy)benzonitrile], the IC50 was determined as 3 nM on IKKε, 888 nM on hJAK2 and 2 nM against TBK1.

Consider `C[C@H](O)C(=O)N1CC[C@H](Oc2ccc(-c3ncnc(Nc4ccnc(C(C)(C)O)c4)n3)cc2C#N)[C@H](F)C1` [Example 386, 2-(((3R,4S)-3-fluoro-1-((S)-2-hydroxypropanoyl)piperidin-4-yl)oxy)-5-(4-((2-(2-hydroxypropan-2-yl)pyridin-4-yl)amino)-1,3,5-triazin-2-yl)benzonitrile], for which the IC50 on IKKε is 6 nM; on hJAK2, not below 1000 nM; against TBK1 it was 4 nM.
